Values quoted from earlier work in patent publication US8410124B2, “Deuterated etravirine” (Concert Pharmaceuticals Inc., priority 2007, dated 2013).

Columns and labels:
[1] = humans
[2] = over a 2 hour period

excreted largely intact in the feces ([1]; feces): > 85% | excreted largely intact in the urine ([1]; urine): < 1% | degradation in human liver microsomes [2]: 15%
Structure (SMILES): Cc1cc(C#N)cc(C)c1Oc1nc(Nc2ccc(C#N)cc2)nc(N)c1Br [etravirine, 4-(6-amino-5-bromo-2-(4-cyanophenylamino)pyrimidin-4-yloxy)-3,5-dimethylbenzonitrile]
most common adverse effects of the combined regimen (healthy volunteers, etravirine in combination with lopinavir/ritonavir): diarrhea and headache | safety and tolerability profile (phase IIb trials with treatment-experienced patients): generally comparable with placebo | mild side effects (trials with HIV-1-infected patients dosed with etravirine): diarrhea, headache, abdominal pain, acute tonsillitis, flatulence, gastroenteritis, hot flushes, insomnia, intercostal pain, pruritus, somnolence, tachycardia and vomiting
